Assay [1] concerns the target T1, reduced and denatured Bovine Pancreatic Trypsin Inhibitor (BPTI) (Bos taurus, UniProt P00974).
T1 construct: purchased Pro-Spec-Tany TechnoGene Ltd. (Rehovot, Israel)
Description: Protein folding test of reduced and denatured BPTI (reverse-phase HPLC). Format: biochemical. The note with it: for formation proportion of native structural BPTI in the presence of Zn(II) ions: 90 μM Zn(II) (ZnSO4), 90 μM (B-1-2-1) or 900 μM GSSG alone, 1 hour (FIG. 25). Here is the method:
Bovine Pancreatic Trypsin Inhibitor (BPTI) having three disulfide bonds in the molecule was used as a model protein for analyzing a folding process.
BPTI (10 mg) was dissolved in 0.1 M Tris-HCl (pH: 8.0, 1.0 mL) containing 30 mM 1,4-dithiothreitol and 8 M urea, incubated at 50° C. for 3 hours, and purified by reverse-phase HPLC. HPLC purification was carried out using a PU-4180 pump and a UV-4075 detector manufactured by JASCO Corporation (Tokyo, Japan), and an InertSustain C18 column (4.6 mm×250 mm) manufactured by GL Sciences Inc. (Tokyo, Japan) at a flow rate of 1.0 mL·min^−1. The collected fractions were freeze-dried, and the obtained powder was stored at −30° C.
For analysis of the folding process by reverse-phase HPLC, Primaide HPLC system manufactured by Hitachi High-Tech Corporation (Tokyo, Japan) and TSKgel Protein C4-300 column (§ 4.6×150 mm) manufactured by Tosoh Corporation (Tokyo, Japan) were used. […]
In the presence of 200 μM of the compound (B-1-1-1) and 1.0 mM of the compound (A-1-1-1), reduced and denatured BPTI (30 μM) was dissolved in a Tris-HCl buffer (50 mM Tris-HCl, 300 mM NaCl, pH: 7.5) and incubated at 30° C. Reaction solutions (200 μL) collected at 0 minutes, 1 minute, 5 minutes, 10 minutes, 30 minutes, and 60 minutes after the start of the reaction were mixed with an equivalent amount of 1 M hydrochloric acid, and analyzed by reverse-phase HPLC. Tracing was performed at a flow rate of 1.0 mL·min^−1 and a wavelength of 229 nm, and a linear gradient was applied to the elution solvent ratio during measurement (solvent A: water containing 0.05% TFA, solvent B: acetonitrile containing 0.05% TFA; the amount of solvent A: 95% at 0 minutes, 80% at 15 minutes, 65% at 45 minutes). […]
In the presence of 200 μM oxidized glutathione (GSSG) and 1.0 mM reduced glutathione (GSH), or in the presence of 200 μM of the compound (B-1-1-1) and 1.0 mM of the compound (A-1-1-1), ZnSO4 and reduced and denatured BPTI (30 μM) were dissolved in a Tris-HCl buffer (50 mM Tris-HCl, 300 mM NaCl, pH: 7.5) and incubated at 30° C. The reaction solution (200 μL) 1 hour after the start of the reaction was mixed with an equivalent amount of 1 M hydrochloric acid and analyzed by reverse-phase HPLC. Tracing was performed at a flow rate of 1.0 mL·min^−1 and a wavelength of 229 nm, and a linear gradient was applied to the elution solvent ratio during measurement (solvent A: water containing 0.05% TFA, solvent B: acetonitrile containing 0.05% TFA; the amount of solvent A: 95% at 0 minutes, 80% at 15 minutes, 65% at 45 minutes).
In the presence of 90 μM of the compound (B-1-2-1) and 900 μM of the compound (A-1-2-1), or in the presence of 90 μM of oxidized glutathione […] and 900 μM of reduced glutathione […], reduced and denatured BPTI (30 μM) was dissolved in a Tris-HCl buffer (50 mM Tris-HCl, 300 mM NaCl, pH: 7.5) and incubated at 30° C. The reaction solution (200 μL) 1 hour after the start of the reaction was mixed with an equivalent amount of 1 M hydrochloric acid and analyzed by reverse-phase HPLC. Tracing was performed at a flow rate of 1.0 mL·min^−1 and a wavelength of 229 nm, and a linear gradient was applied to the elution solvent ratio during measurement (solvent A: water containing 0.05% TFA, solvent B: acetonitrile containing 0.05% TFA; the amount of solvent A: 95% at 0 minutes, 80% at 15 minutes, 65% at 45 minutes).
In the presence of 90 μM of the compound (B-1-2-1), 90 μM of Zn(II) ion (ZnSO4) and reduced and denatured BPTI (30 μM) were dissolved in a Tris-HCl buffer (50 mM Tris-HCl, 300 mM NaCl, pH: 7.5) and incubated at 30° C. The reaction solution (200 μL) 1 hour after the start of the reaction was mixed with an equivalent amount of 1 M hydrochloric acid and analyzed by reverse-phase HPLC. […]

The test system of assay [2] is HeLa cells. The assay can be described thus: Suppressive effect on cytotoxicity of Cu(II) ions (Cell Counting Kit-8). Format: cell-based. Particulars: 100 μM Cu(II); single oxidized agent added four hours later; read 24 hours after CuCl2 (FIG. 15). As to the method: HeLa cells were seeded in a 96-well plate at 5,000 cells/well and cultured at 37° C. in a 5% CO2 environment for 24 hours. Subsequently, a CuCl2 aqueous solution was added thereto to obtain 100 μM Cu(II). Four hours later, a mixed solution (10:1) of a certain amount of the compound (A-1-1-1) and the compound (B-1-1-1), or a mixed solution (10:1) of oxidized glutathione (GSSG) and reduced glutathione (GSH) was added. 24 hours after the addition of CuCl2, a Cell Counting Kit-8 solution was added thereto. Two hours later, an absorbance at 450 nm was measured to estimate the cell viability.
HeLa cells were seeded in a 96-well plate at 5,000 cells/well and cultured at 37° C. in a 5% CO2 environment for 24 hours. Subsequently, a CuCl2 aqueous solution was added thereto to obtain 100 μM Cu(II). Four hours later, a certain amount of the compound (B-1-1-1) solution or oxidized glutathione (GSSG) solution was added thereto. 24 hours after the addition of CuCl2, a Cell Counting Kit-8 solution was added thereto. Two hours later, the absorbance at 450 nm was measured to estimate the cell viability.
For orientation: Tetrazolium dyes change colour on reduction, which living cells bring about.

For `C1CN2CCSSCCN(CCN1)CC2` [compound (B-2-1-1)], the “protein folding promotion effect of a catalytic amount” value in assay [1] (6 μM (B-2-1-1), NiCl2 0 μM, BPTI 30 μM (FIG. 31)) is “had the protein folding promotion effect”. Further, in assay [1] (6 μM (B-2-1-1), NiCl2 1 μM, BPTI 30 μM (FIG. 32)), the “protein folding promotion effect of a catalytic amount in the presence of Ni(II) ions” value is recorded as “significantly improved as compared with the absence of Ni(II) ions”. For the same compound, the “protein folding promotion effect of a catalytic amount in the presence of Cu(II) ions” value in assay [1] (30 μM (B-2-1-1), CuCl2 5 μM, BPTI 30 μM (FIG. 33)) was “significantly improved as compared with the absence of Cu(II) ions”. Further, in assay [1] (90 μM (B-2-1-1), CuCl2, 1 hour (FIG. 29)), the “formation proportion of native structural BPTI with increasing Cu(II) ion concentration” value is given as “formation proportion of native structural BPTI increased as the Cu(II) ion concentration increased”. In assay [1] (90 μM (B-2-1-1), NiCl2, 1 hour (FIG. 30)), the “formation proportion of native structural BPTI with increasing Ni(II) ion concentration” value is given as “formation proportion of native structural BPTI increased as the Ni(II) ion concentration increased”. The “folding versus theoretical yield of a stoichiometric reaction” value in assay [1] (catalytic amount of (B-2-1-1), presence of Ni(II) ions or Cu(II) ions) was “enhancement of folding that greatly exceeded the theoretical yield expected for a stoichiometric reaction”. Also, in assay [1] (no metal ion, 90 μM agent, 1 hour, 30° C. (FIG. 28)), the “protein folding promotion effect” value was “protein folding promotion effect comparable to that of GSSG”.
As for “oxidized glutathione [GSSG, reference compound]”, the “formation proportion of native structural BPTI in the presence of Zn(II) ions” value in assay [1] is “proteins aggregated and folding hardly proceeded”. The “improvement of cell viability of HeLa cells exposed to Cu(II) ions” value in assay [2] is recorded as “had little effect on improving the cell viability of HeLa cells”.
`C1CNCCNCCCN(CCSSCCN2CCCNCCNCCCNCC2)CCNC1` [compound (B-1-1-1)]: in assay [2], the “improvement of cell viability of HeLa cells exposed to Cu(II) ions” value is listed as “greatly improved the viability of HeLa cells”.
Turning to `C1CNCCN(CCSSCCN2CCNCCNCC2)CCN1` [compound (B-1-2-1)], the “formation of native structural BPTI in the absence of Zn(II) ions” value in assay [1] (90 μM (B-1-2-1) alone, Zn(II) 0 μM, 1 hour (FIG. 23)) is reported as “native structural BPTI was formed even at a Zn(II) ion concentration of 0 μM”. Further, the “formation proportion of native structural BPTI with increasing Zn(II) ion concentration” value in assay [1] (90 μM (B-1-2-1) alone, ZnSO4, 1 hour, 30° C. (FIG. 23)) was “formation proportion of native structural BPTI increased as the Zn(II) ion concentration increased”. For the same compound, the “formation proportion of native structural BPTI in the presence of Zn(II) ions” value in assay [1] is listed as “formation proportion of native structural BPTI was larger in the presence of Zn(II) ions than in the absence of Zn(II) ions”.

These data come from patent publication US20260258077A1, “PROTEIN FOLDING AGENT, COMPOUND, PROTEIN FOLDING METHOD, PHARMACEUTICAL COMPOSITION, AND AGENT FOR SUPPRESSING CYTOTOXICITY BY TRANSITION METAL” (National University Corporation Tokyo University of …, priority 2023, published 2026).
